Each compound was assayed against recombinant human Nav1.7 (Homo sapiens (Human), UniProt Q15858) (assay: FRET-based membrane potential assay, recombinant human sodium channel Nav1.7). Details: HEK293 cells stably expressing recombinant human Nav1.7; veratridine + scorpion venom depolarization; read-out: FRET-Membrane Potential Nav1.7 IC50.
Assay type: cell-based
Summary of the method: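 Channel activation used veratridine at its EC80, set by a dilution curve each experiment, together with Leiurus scorpion venom, added 3 min after compound. Membrane-potential ratio signals from FLIPR Tetra in HEPES-buffered HBSS were fitted to a four-parameter Hill equation for percent inhibition and IC50.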

Sequence of recombinant human Nav1.7 (Q15858 whole entry): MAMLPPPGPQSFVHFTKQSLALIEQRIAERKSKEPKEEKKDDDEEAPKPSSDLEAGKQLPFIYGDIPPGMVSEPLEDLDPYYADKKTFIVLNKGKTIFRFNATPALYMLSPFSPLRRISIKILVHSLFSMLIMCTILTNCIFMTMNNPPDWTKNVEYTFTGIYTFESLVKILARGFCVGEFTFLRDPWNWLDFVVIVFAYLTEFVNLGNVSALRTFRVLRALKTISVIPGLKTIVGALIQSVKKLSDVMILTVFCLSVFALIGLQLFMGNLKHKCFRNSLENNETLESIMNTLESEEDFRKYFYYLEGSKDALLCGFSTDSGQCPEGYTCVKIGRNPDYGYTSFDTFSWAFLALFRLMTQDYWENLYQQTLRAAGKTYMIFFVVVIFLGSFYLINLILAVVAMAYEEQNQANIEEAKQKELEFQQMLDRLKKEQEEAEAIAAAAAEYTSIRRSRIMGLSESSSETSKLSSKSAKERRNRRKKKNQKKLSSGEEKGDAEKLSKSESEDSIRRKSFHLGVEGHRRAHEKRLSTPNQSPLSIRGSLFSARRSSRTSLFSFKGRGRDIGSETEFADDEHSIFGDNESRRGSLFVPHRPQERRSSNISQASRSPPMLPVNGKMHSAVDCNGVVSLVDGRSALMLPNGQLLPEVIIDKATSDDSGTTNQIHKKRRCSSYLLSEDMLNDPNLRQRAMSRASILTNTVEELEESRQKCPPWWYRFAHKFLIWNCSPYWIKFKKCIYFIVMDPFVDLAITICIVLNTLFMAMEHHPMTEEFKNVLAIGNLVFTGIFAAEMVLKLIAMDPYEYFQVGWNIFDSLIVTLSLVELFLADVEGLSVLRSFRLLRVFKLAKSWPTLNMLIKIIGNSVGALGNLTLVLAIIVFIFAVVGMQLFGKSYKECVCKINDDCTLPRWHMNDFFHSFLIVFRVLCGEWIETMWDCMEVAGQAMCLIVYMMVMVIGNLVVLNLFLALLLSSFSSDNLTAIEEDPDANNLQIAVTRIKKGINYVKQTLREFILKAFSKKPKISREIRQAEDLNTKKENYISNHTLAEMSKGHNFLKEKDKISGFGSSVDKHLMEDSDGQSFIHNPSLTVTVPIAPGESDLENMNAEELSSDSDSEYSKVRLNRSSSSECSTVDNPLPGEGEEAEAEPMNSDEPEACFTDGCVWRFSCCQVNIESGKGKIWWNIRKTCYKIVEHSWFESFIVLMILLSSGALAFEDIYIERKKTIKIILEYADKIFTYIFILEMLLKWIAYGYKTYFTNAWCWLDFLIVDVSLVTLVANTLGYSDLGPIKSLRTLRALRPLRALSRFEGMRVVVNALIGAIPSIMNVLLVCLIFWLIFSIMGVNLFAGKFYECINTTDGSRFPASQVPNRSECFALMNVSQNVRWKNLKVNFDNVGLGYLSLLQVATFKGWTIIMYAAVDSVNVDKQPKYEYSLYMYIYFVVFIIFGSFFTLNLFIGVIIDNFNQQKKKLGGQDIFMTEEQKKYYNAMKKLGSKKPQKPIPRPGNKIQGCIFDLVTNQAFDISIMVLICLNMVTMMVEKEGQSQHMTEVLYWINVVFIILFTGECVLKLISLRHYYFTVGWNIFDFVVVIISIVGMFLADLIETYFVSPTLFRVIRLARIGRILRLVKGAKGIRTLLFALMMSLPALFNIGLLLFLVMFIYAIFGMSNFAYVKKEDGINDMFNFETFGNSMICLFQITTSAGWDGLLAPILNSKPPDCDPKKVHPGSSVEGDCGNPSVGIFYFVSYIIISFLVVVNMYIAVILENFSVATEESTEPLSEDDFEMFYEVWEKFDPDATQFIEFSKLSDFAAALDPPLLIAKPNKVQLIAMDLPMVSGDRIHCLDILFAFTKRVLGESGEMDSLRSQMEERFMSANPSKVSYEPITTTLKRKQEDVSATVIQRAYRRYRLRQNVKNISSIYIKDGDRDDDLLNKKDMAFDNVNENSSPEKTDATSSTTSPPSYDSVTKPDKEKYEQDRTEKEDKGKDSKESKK

Compared with `O=C(c1ccc2cc(Oc3ccc(C(F)(F)F)cn3)ccc2n1)N1CC[C@H](F)[C@H](O)C1` (relative stereo) [Example 192, [cis-4-fluoro-3-hydroxypiperidin-1-yl](6-{[5-(trifluoromethyl)pyridin-2-yl]oxy}quinolin-2-yl)methanone], `O=C(c1ccc2cc(Oc3ccc(C(F)(F)F)cn3)ccc2n1)N1CCC(=O)N2C[C@@H](O)C[C@H]2C1` [Example 212, (8S,9aS)-8-hydroxy-2-[(6-{[5-(trifluoromethyl)pyridin-2-yl]oxy}quinolin-2-yl)carbonyl]octahydro-5H-pyrrolo[1,2-a][1,4]diazepin-5-one] is higher in IC50: 17.7 µM for the first, over 20 µM for the second.

First: N#Cc1ccc(Oc2ccc3nc(C(=O)N4CCCCCC4)ccc3c2)cc1 [Example 106, 4-{[2-(azepan-1-ylcarbonyl)quinolin-6-yl]oxy}benzonitrile]
Second: O=C(c1ccc2cc(Oc3ccc(C(F)(F)F)cn3)ccc2n1)N1CC2(CNC2)C1 [Example 157, 2,6-diazaspiro[3.3]hept-2-yl(6-{[5-(trifluoromethyl)pyridin-2-yl]oxy}quinolin-2-yl)methanone]
The IC50 of the first is lower: 2.42 µM for the first, over 20 µM for the second.

`CN(C)C(=O)[C@@H]1C[C@@H](F)CN1C(=O)c1ccc2cc(Oc3ccc(C(F)(F)F)cn3)ccc2n1` [Example 509, (4R)-4-fluoro-N,N-dimethyl-1-[(6-{[5-(trifluoromethyl)pyridin-2-yl]oxy}quinolin-2-yl)carbonyl]-L-prolinamide] and `CC(C)NC(=O)CN(C)C(=O)c1ccc2cc(Oc3ccc(C(F)(F)F)cn3)ccc2n1` [Example 454, N-[2-(isopropylamino)-2-oxoethyl]-N-methyl-6-{[5-(trifluoromethyl)pyridin-2-yl]oxy}quinoline-2-carboxamide] are within 1.5-fold of each other in IC50: 2.64 µM for the first, 3.14 µM for the second.

First: O=C(c1ccc2cc(Oc3ccc(C(F)(F)F)cn3)ccc2n1)N1CCc2ccccc2C1 [Example 253, 3,4-dihydroisoquinolin-2(1H)-yl(6-{[5-(trifluoromethyl)pyridin-2-yl]oxy}quinolin-2-yl)methanone]
Second: {2-[(dimethylamino)methyl]morpholin-4-yl}(6-{[5-(trifluoromethyl)pyridin-2-yl]oxy}quinolin-2-yl)methanone [Example 374]
The IC50 of the first is higher: over 20 µM for the first, 0.97 µM for the second.

Going from `O=C(c1ccc2cc(Oc3ccc(C(F)(F)F)cn3)ccc2n1)N1CC(F)C(F)C1` (stereo not drawn) [Example 415, (3,4-difluoropyrrolidin-1-yl)(6-{[5-(trifluoromethyl)pyridin-2-yl]oxy}quinolin-2-yl)methanone] to `O=C(c1ccc2cc(Oc3ncccn3)ccc2n1)N1CCNCC1` [Example 242, piperazin-1-yl[6-(pyrimidin-2-yloxy)quinolin-2-yl]methanone], the IC50 rises from 1.61 µM to over 20 µM. The first is the more potent here.

`O=C(c1ccc2cc(Oc3ccc(C(F)(F)F)cn3)ccc2n1)N1CCN(S(=O)(=O)C2CCOC2)CC1` (stereo not drawn) [Example 381, [4-(tetrahydrofuran-3-ylsulfonyl)piperazin-1-yl](6-{[5-(trifluoromethyl)pyridin-2-yl]oxy}quinolin-2-yl)methanone] and `O=C(N[C@H]1CS(=O)(=O)C[C@H]1O)c1ccc2cc(Oc3ccc(C(F)(F)F)nc3)ccc2n1` [Example 537, N-[(3R,4S)-4-hydroxy-1,1-dioxidotetrahydrothiophen-3-yl]-6-{[6-(trifluoromethyl)pyridin-3-yl]oxy}quinoline-2-carboxamide] are within 1.5-fold of each other in IC50: 3.41 µM for the first, 2.71 µM for the second.

Compared with `O=C(NCC1C[S+]([O-])C1)c1ccc2cc(Oc3ccc(C(F)(F)F)cn3)ccc2n1` (stereo not drawn) [Example 601, N-[(1-oxidothietan-3-yl)methyl]-6-{[5-(trifluoromethyl)pyridin-2-yl]oxy}quinoline-2-carboxamide], `O=C(c1ccc2cc(Oc3ccc(C(F)(F)F)cn3)ccc2n1)N1CCN(c2ccccn2)CC1` [Example 182, [4-(pyridin-2-yl)piperazin-1-yl](6-{[5-(trifluoromethyl)pyridin-2-yl]oxy}quinolin-2-yl)methanone] is 3.6-fold lower in IC50: 2.51 µM for the first, 0.69 µM for the second.

Compared with `NC(=O)C1CN(C(=O)c2ccc3cc(Oc4ccc(C(F)(F)F)cn4)ccc3n2)CCN1` (stereo not drawn) [Example 402, 4-[(6-{[5-(trifluoromethyl)pyridin-2-yl]oxy}quinolin-2-yl)carbonyl]piperazine-2-carboxamide], `COc1cccc(N2CCN(C(=O)c3ccc4cc(Oc5ccc(C(F)(F)F)cn5)ccc4n3)CC2=O)c1` [Example 498, 1-(3-methoxyphenyl)-4-[(6-{[5-(trifluoromethyl)pyridin-2-yl]oxy}quinolin-2-yl)carbonyl]piperazin-2-one] is 9.8-fold lower in IC50: 9.07 µM for the first, 0.923 µM for the second. The second is the more potent here.

Compared with `N#Cc1ccc(Oc2ccc3nc(C(=O)NCc4ccncc4)ccc3c2)cc1` [Example 98, 6-(4-cyanophenoxy)-N-(pyridin-4-ylmethyl)quinoline-2-carboxamide], `CN(C)C(=O)[C@@H]1CCCN1C(=O)c1ccc2cc(Oc3ccc(C(F)(F)F)cn3)ccc2n1` [Example 451, N,N-dimethyl-1-[(6-{[5-(trifluoromethyl)pyridin-2-yl]oxy}quinolin-2-yl)carbonyl]-L-prolinamide] is 5.9-fold higher in IC50: 0.885 µM for the first, 5.23 µM for the second.

Going from `O=C1CN(C(=O)c2ccc3cc(Oc4ccc(C(F)(F)F)cn4)ccc3n2)CCN1` [Example 172, 4-[(6-{[5-(trifluoromethyl)pyridin-2-yl]oxy}quinolin-2-yl)carbonyl]piperazin-2-one] to `O=C(c1ccc2cc(Oc3ccc(C(F)(F)F)cn3)ccc2n1)N1CCN(CC(F)(F)F)CC1` [Example 181, [4-(2,2,2-trifluoroethyl)piperazin-1-yl](6-{[5-(trifluoromethyl)pyridin-2-yl]oxy}quinolin-2-yl)methanone], the IC50 falls from 10.5 µM to 3.47 µM (3-fold).

Going from `O=C(c1ccc2cc(Oc3ccc(C(F)(F)F)cn3)ccc2n1)N1CC2(CCNCC2)C1` [Example 232, 2,7-diazaspiro[3.5]non-2-yl(6-{[5-(trifluoromethyl)pyridin-2-yl]oxy}quinolin-2-yl)methanone] to `O=C(NCC(=O)N1CCOCC1)c1ccc2cc(Oc3ccc(C(F)F)cn3)ccc2n1` [Example 458, 6-{[5-(difluoromethyl)pyridin-2-yl]oxy}-N-[2-(morpholin-4-yl)-2-oxoethyl]quinoline-2-carboxamide], the IC50 falls from 17.4 µM to 1.19 µM (15-fold). The second is the more potent here.

Going from `O=C(c1ccc2cc(Oc3ccc(C(F)(F)F)cn3)ccc2n1)N1CC(F)(F)C1` [Example 508, (3,3-difluoroazetidin-1-yl)(6-{[5-(trifluoromethyl)pyridin-2-yl]oxy}quinolin-2-yl)methanone] to `CC(C)NC(=O)CN(C)C(=O)c1ccc2cc(Oc3ccc(C(F)(F)F)nc3)ccc2n1` [Example 525, N-[2-(isopropylamino)-2-oxoethyl]-N-methyl-6-{[6-(trifluoromethyl)pyridin-3-yl]oxy}quinoline-2-carboxamide], the IC50 rises from 3.65 µM to 6.65 µM (1.8-fold). The first is the more potent here.

Compared with `O=C(NCCC(=O)N1CCCC1)c1ccc2cc(Oc3ccc(C(F)(F)F)nc3)ccc2n1` [Example 516, N-[3-oxo-3-(pyrrolidin-1-yl)propyl]-6-{[6-(trifluoromethyl)pyridin-3-yl]oxy}quinoline-2-carboxamide], `O=C(NC1CS(=O)(=O)C1)c1ccc2cc(Oc3ccc(C(F)(F)F)cn3)ccc2n1` [Example 504, N-(1,1-dioxidothietan-3-yl)-6-{[5-(trifluoromethyl)pyridin-2-yl]oxy}quinoline-2-carboxamide] is 3.4-fold lower in IC50: 2 µM for the first, 0.593 µM for the second.

Same assay, conditions: read-out: FRET-Membrane Potential Nav1.7 IC50

Going from `O=C(NCC(=O)N1CCC1)c1ccc2cc(Oc3ccc(C(F)(F)F)cn3)ccc2n1` [Example 571, N-[2-(azetidin-1-yl)-2-oxoethyl]-6-{[5-(trifluoromethyl)pyridin-2-yl]oxy}quinoline-2-carboxamide] to `O=C(NCCO)c1ccc2cc(Oc3ccc(C(F)(F)F)cn3)ccc2n1` [Example 326, N-(2-hydroxyethyl)-6-{[5-(trifluoromethyl)pyridin-2-yl]oxy}quinoline-2-carboxamide], the IC50 rises from 0.448 µM to 3.15 µM (7-fold).

First: O=C(c1ccc2cc(Oc3ccc(C(F)F)cn3)ccc2n1)N1CCC(N2CCOCC2)CC1 [Example 435, (6-{[5-(difluoromethyl)pyridin-2-yl]oxy}quinolin-2-yl)[4-(morpholin-4-yl)piperidin-1-yl]methanone]
Second: O=C(c1ccc2cc(Oc3ccc(C(F)(F)F)cn3)ccc2n1)N1CCC(N2CC(F)(F)C2)CC1 [Example 540, [4-(3,3-difluoroazetidin-1-yl)piperidin-1-yl](6-{[5-(trifluoromethyl)pyridin-2-yl]oxy}quinolin-2-yl)methanone]
The IC50 of the first is 3.1-fold higher: 12.6 µM for the first, 4.03 µM for the second.

Going from `O=C(c1ccc2cc(Oc3ccc(C(F)(F)F)cn3)ccc2n1)N1CCSCC1` [Example 221, thiomorpholin-4-yl(6-{[5-(trifluoromethyl)pyridin-2-yl]oxy}quinolin-2-yl)methanone] to `O=C(c1ccc2cc(Oc3ccc(C(F)(F)F)cn3)ccc2n1)N1C[C@H](O)C[C@@H](O)C1` [Example 395, [(3R,5R)-3,5-dihydroxypiperidin-1-yl](6-{[5-(trifluoromethyl)pyridin-2-yl]oxy}quinolin-2-yl)methanone], the IC50 rises from 2.79 µM to over 20 µM.

`O=C(NC1COC1)c1ccc2cc(Oc3ccc(C(F)F)cn3)ccc2n1` [Example 475, 6-{[5-(difluoromethyl)pyridin-2-yl]oxy}-N-(oxetan-3-yl)quinoline-2-carboxamide] and `N#Cc1ccc(Oc2ccc3nc(C(=O)N[C@@H]4CCOC4)ccc3c2)cc1` [Example 117, 6-(4-cyanophenoxy)-N-[(3R)-tetrahydrofuran-3-yl]quinoline-2-carboxamide] are within 1.5-fold of each other in IC50: 1.96 µM for the first, 2.23 µM for the second.

`N#Cc1ccc(Oc2ccc3nc(C(=O)N[C@H]4CCOC4)ccc3c2)cc1` [Example 118, 6-(4-cyanophenoxy)-N-[(3S)-tetrahydrofuran-3-yl]quinoline-2-carboxamide] and `COCC1(C)CN(C(=O)c2ccc3cc(Oc4ccc(C(F)(F)F)cn4)ccc3n2)C1` [Example 199, [3-(methoxymethyl)-3-methylazetidin-1-yl](6-{[5-(trifluoromethyl)pyridin-2-yl]oxy}quinolin-2-yl)methanone] are within 1.5-fold of each other in IC50: 2.27 µM for the first, 2.55 µM for the second.
